Experimental data as given in ChEMBL document CHEMBL4507270 (2021).
Activity calls are given as the source filed them. No cut-off for these calls is given here.

How the values were obtained:
[1] = biological target: 5-hydroxytryptamine receptor 2B (Homo sapiens, UniProt P41595); settings: Compound concentration 10.0 uM
[2] = biological target: Calcium/calmodulin-dependent protein kinase kinase 1 (Homo sapiens) (UniProt Q8N5S9)
[3] = system: Tyrosine-protein kinase ABL1 (Homo sapiens), P00519 [T315I]
[4] = system: Receptor-type tyrosine-protein kinase FLT3 (Homo sapiens), P36888 [UNDEFINED MUTATION]
[5] = biological target: Platelet-derived growth factor receptor beta (Homo sapiens, UniProt P09619)
[6] = biological target: Ribosomal protein S6 kinase alpha-1 (Homo sapiens) (UniProt Q15418)
[7] = biological target: Death-associated protein kinase 1 (Homo sapiens) (UniProt P53355)
Chain of Death-associated protein kinase 1 (Homo sapiens) (P53355 whole entry, looked up): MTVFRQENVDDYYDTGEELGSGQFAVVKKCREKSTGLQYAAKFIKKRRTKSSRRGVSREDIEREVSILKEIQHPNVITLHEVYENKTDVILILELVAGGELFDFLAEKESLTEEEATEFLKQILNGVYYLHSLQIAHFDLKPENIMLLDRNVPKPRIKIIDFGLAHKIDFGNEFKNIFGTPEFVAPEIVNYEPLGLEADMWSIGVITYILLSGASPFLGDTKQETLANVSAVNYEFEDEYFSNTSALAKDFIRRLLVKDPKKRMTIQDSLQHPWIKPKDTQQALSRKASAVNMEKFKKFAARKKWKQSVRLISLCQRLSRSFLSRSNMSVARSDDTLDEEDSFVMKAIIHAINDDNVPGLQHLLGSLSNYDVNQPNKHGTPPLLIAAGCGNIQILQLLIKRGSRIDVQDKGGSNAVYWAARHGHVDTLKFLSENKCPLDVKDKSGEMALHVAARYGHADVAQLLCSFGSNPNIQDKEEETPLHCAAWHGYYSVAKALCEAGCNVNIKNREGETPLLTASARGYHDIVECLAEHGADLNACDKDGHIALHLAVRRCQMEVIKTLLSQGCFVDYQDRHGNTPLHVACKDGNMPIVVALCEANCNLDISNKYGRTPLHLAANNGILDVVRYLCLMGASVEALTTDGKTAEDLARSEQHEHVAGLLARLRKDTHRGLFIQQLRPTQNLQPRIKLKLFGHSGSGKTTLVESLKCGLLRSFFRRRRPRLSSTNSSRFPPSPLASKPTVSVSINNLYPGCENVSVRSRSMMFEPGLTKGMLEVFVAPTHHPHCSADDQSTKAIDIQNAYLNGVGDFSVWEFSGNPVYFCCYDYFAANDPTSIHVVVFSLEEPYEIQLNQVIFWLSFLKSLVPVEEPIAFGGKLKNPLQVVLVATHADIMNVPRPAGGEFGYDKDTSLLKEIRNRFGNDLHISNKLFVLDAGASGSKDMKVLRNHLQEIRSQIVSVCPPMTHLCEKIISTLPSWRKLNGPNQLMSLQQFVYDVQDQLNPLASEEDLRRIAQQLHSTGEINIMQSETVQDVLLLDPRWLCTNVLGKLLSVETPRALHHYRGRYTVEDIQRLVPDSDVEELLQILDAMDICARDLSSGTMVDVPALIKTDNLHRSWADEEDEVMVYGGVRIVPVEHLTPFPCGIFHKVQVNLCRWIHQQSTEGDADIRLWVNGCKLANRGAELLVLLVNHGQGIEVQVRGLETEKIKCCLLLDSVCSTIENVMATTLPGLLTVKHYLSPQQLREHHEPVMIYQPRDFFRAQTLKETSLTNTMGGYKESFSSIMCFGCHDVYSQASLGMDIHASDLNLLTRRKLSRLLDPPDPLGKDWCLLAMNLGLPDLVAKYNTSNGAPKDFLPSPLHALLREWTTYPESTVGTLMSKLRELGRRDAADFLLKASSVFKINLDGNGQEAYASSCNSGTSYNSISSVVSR

[8] = system: Tyrosine-protein kinase ABL1 (Homo sapiens), P00519 [T315I]; remark: listed apart in the source
[9] = system: Proto-oncogene tyrosine-protein kinase receptor Ret (Homo sapiens), P07949 [M918T]
[10] = biological target: Serine/threonine-protein kinase PAK 4 (Homo sapiens) (UniProt O96013)
[11] = biological target: Mitogen-activated protein kinase kinase kinase kinase 5 (Homo sapiens) (UniProt Q9Y4K4)
[12] = biological target: Tyrosine-protein kinase Srms (Homo sapiens) (UniProt Q9H3Y6)
[13] = biological target: Receptor tyrosine-protein kinase erbB-4 (Homo sapiens) (UniProt Q15303)
[14] = biological target: Ephrin type-B receptor 3 (Homo sapiens) (UniProt P54753)
[15] = biological target: Leukocyte tyrosine kinase receptor (Homo sapiens) (UniProt P29376)
[16] = system: Receptor-type tyrosine-protein kinase FLT3 (Homo sapiens), P36888 [D835V]
[17] = biological target: Phosphatidylinositol 4,5-bisphosphate 3-kinase catalytic subunit delta isoform (Homo sapiens) (UniProt O00329)
[18] = biological target: Sigma intracellular receptor 2 (Homo sapiens, UniProt Q5BJF2); settings: Compound concentration 10.0 uM
[19] = biological target: 5-hydroxytryptamine receptor 5A (Homo sapiens) (UniProt P47898); settings: Compound concentration 10.0 uM
Chain of 5-hydroxytryptamine receptor 5A (Homo sapiens) (P47898 whole entry): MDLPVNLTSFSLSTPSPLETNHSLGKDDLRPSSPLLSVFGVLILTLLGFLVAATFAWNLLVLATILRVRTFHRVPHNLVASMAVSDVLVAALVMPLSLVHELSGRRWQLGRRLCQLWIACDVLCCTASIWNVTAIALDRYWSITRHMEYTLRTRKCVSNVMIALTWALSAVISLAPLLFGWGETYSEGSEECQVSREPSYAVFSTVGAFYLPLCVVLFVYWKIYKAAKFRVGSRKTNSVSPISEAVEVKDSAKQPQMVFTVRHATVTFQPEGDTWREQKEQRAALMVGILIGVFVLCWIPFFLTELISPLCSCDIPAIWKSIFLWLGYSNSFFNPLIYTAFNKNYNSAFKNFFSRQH

[20] = biological target: Dual specificity protein kinase CLK3 (Homo sapiens) (UniProt P49761)
[21] = biological target: High affinity nerve growth factor receptor (Homo sapiens) (UniProt P04629)
[22] = biological target: Dual specificity tyrosine-phosphorylation-regulated kinase 1B (Homo sapiens) (UniProt Q9Y463)
[23] = system: Epidermal growth factor receptor (Homo sapiens), P00533 [UNDEFINED MUTATION]
[24] = biological target: Rhodopsin kinase GRK7 (Homo sapiens) (UniProt Q8WTQ7)
[25] = system: ALK tyrosine kinase receptor (Homo sapiens), Q9UM73 [L1196M]
[26] = biological target: Atypical kinase COQ8A, mitochondrial (Homo sapiens) (UniProt Q8NI60)
Chain of Atypical kinase COQ8A, mitochondrial (Homo sapiens) (Q8NI60 163-647 limits assumed): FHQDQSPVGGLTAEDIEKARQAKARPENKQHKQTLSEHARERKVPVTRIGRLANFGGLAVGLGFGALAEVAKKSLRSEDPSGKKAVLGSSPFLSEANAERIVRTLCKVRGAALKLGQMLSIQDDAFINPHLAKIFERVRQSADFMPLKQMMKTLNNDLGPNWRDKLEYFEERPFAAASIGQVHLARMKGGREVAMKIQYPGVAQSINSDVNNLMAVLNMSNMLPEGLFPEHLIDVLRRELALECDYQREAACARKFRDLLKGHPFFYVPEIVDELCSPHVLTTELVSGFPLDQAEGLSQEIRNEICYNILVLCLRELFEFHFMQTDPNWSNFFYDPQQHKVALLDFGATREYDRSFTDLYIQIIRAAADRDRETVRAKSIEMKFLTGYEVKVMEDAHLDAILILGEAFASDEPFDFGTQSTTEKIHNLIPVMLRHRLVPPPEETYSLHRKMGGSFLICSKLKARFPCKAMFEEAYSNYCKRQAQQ

[27] = system: Receptor-type tyrosine-protein kinase FLT3 (Homo sapiens), P36888 [D835H]
[28] = biological target: RAC-alpha serine/threonine-protein kinase (Homo sapiens) (UniProt P31749)
[29] = system: Tyrosine-protein kinase ABL1 (Homo sapiens), P00519 [M351T]
[30] = biological target: Serine/threonine-protein kinase Nek4 (Homo sapiens) (UniProt P51957)
[31] = biological target: cGMP-dependent protein kinase 1 (Homo sapiens) (UniProt Q13976)
[32] = biological target: Cyclin-dependent kinase-like 5 (Homo sapiens) (UniProt O76039)
Chain of Cyclin-dependent kinase-like 5 (Homo sapiens) (O76039 whole entry): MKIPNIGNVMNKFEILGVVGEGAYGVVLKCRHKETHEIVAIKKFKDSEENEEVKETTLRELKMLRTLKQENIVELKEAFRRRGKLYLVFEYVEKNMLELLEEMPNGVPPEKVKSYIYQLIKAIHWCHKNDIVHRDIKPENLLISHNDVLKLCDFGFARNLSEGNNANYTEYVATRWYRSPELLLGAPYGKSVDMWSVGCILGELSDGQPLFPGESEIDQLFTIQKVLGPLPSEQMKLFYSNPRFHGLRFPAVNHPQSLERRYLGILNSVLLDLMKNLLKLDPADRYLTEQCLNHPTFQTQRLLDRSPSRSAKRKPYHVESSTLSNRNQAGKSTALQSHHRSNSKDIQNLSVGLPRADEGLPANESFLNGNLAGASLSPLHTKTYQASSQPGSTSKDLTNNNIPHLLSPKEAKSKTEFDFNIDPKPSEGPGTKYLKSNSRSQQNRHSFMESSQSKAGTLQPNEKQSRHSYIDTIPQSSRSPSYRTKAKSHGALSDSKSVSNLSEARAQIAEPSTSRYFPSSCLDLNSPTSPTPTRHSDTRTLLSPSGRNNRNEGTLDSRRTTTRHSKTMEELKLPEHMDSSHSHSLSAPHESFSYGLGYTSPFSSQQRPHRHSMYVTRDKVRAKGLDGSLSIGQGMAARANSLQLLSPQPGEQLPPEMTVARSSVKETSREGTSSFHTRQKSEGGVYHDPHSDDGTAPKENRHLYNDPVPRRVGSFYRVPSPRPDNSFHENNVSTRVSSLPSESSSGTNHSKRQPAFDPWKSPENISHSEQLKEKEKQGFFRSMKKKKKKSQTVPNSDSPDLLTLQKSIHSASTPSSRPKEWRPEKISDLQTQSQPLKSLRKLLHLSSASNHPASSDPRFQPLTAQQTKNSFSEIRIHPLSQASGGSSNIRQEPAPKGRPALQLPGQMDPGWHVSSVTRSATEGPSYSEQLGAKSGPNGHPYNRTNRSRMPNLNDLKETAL

[33] = biological target: Proto-oncogene tyrosine-protein kinase ROS (Homo sapiens) (UniProt P08922)
[34] = system: Phosphatidylinositol 4,5-bisphosphate 3-kinase catalytic subunit alpha isoform (Homo sapiens), P42336 [H1047L]
[35] = biological target: Serine/threonine-protein kinase Nek6 (Homo sapiens) (UniProt Q9HC98)
[36] = system: Receptor-type tyrosine-protein kinase FLT3 (Homo sapiens), P36888 [UNDEFINED MUTATION]; remark: listed apart in the source
[37] = biological target: Activin receptor type-1 (Homo sapiens) (UniProt Q04771)
[38] = biological target: D(4) dopamine receptor (Homo sapiens) (UniProt P21917); settings: Compound concentration 10.0 uM
Chain of D(4) dopamine receptor (Homo sapiens) (P21917 whole entry): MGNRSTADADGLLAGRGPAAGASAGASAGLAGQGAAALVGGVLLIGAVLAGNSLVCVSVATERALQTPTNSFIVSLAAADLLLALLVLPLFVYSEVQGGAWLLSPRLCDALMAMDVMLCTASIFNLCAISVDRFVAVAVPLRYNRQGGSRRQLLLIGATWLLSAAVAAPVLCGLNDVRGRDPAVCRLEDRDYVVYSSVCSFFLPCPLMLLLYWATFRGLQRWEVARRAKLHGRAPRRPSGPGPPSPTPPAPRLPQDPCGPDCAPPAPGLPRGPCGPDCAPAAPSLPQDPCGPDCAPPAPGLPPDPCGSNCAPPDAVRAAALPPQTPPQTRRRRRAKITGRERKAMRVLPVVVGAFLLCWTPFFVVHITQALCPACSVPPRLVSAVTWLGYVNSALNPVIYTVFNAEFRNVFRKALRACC

[39] = system: Mast/stem cell growth factor receptor Kit (Homo sapiens), P10721 [D816H]
[40] = system: Epidermal growth factor receptor (Homo sapiens), P00533 [G719C]
[41] = biological target: Epithelial discoidin domain-containing receptor 1 (Homo sapiens, UniProt Q08345); test: NanoBRET assay (SGC Frankfurt) with DDR1
Chain of Epithelial discoidin domain-containing receptor 1 (Q08345 whole entry, the tested form may be a part): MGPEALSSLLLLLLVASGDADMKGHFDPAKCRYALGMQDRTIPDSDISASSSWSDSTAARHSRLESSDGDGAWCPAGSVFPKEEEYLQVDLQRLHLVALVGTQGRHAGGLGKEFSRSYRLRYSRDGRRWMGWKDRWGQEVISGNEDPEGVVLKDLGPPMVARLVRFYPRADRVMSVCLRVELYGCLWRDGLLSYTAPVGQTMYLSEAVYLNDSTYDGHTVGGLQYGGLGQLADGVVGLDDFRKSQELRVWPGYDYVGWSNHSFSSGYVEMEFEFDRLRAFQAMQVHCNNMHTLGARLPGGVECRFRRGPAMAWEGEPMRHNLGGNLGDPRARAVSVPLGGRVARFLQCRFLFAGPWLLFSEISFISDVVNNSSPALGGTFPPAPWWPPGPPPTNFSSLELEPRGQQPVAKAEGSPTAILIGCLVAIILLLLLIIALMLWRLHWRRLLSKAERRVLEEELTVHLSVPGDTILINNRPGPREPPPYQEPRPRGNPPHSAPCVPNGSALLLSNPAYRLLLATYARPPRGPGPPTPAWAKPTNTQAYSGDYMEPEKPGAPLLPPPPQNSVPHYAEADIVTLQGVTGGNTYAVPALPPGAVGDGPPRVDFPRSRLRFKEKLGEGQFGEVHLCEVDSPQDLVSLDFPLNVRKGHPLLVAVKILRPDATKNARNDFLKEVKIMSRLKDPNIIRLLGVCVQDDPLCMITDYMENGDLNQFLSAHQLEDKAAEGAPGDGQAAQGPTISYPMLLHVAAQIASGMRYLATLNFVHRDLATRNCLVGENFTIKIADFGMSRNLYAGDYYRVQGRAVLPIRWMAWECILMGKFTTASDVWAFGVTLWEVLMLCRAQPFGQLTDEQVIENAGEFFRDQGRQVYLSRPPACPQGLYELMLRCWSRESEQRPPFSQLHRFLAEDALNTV

[42] = biological target: Interferon-induced, double-stranded RNA-activated protein kinase (Homo sapiens) (UniProt P19525)
[43] = biological target: Tyrosine-protein kinase SYK (Homo sapiens) (UniProt P43405)
[44] = biological target: Casein kinase I isoform alpha (Homo sapiens) (UniProt P48729)
[45] = Compound concentration 100.0 nM
[46] = Compound concentration 1000.0 nM

Chain of 5-hydroxytryptamine receptor 2B (P41595 whole entry): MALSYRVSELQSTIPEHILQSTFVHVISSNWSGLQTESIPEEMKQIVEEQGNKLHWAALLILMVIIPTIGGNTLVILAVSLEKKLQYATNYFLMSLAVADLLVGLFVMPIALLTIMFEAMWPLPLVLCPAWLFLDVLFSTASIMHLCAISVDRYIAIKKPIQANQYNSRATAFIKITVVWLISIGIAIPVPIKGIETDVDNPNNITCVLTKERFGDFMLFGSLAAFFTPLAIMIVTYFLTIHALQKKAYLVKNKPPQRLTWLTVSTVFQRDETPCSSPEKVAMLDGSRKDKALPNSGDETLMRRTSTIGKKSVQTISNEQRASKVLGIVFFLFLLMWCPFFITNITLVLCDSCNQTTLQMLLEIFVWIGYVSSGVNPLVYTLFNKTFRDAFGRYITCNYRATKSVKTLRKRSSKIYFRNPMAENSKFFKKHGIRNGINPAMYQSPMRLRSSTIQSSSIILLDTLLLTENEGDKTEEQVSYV

Cc1cc(C)c(-n2ccn3nc(-c4cccnc4)cc23)cc1NC(=O)c1cc(C#N)cc(S(F)(F)(F)(F)F)c1 [BAY-826]
inhibition [1]: -7%
residual activity [2, 45]: 93.6%
residual activity [3, 45]: 83.8%
residual activity [4, 45]: 87.7%
residual activity [5, 45]: 74.8%
residual activity [6, 45]: 100%
residual activity [7, 45]: 94.1%
residual activity [8, 45]: 33.4%
residual activity [9, 45]: 77.1%
residual activity [10, 45]: 70.4%
residual activity [11, 45]: 83.4%
residual activity [12, 45]: 67.4%
residual activity [13, 45]: 96.3%
residual activity [14, 45]: 100%
residual activity [15, 45]: 32.8%
residual activity [16, 45]: 85.2%
residual activity [17, 45]: 76.9%
inhibition [18]: 64.4%
inhibition [19]: 9.57%
residual activity [20, 45]: 87.7%
residual activity [21, 45]: 74.8%
residual activity [22, 45]: 100%
residual activity [23, 45]: 85.5%
residual activity [24, 45]: 65.6%
residual activity [25, 45]: 99.6%
residual activity [26, 45]: 94.5%
residual activity [27, 45]: 87.8%
residual activity [28, 45]: 90.9%
residual activity [29, 45]: 82.6%
residual activity [30, 45]: 90.2%
residual activity [31, 45]: 100%
residual activity [32, 45]: 100%
residual activity [33, 45]: 100%
residual activity [34, 45]: 82.7%
residual activity [35, 45]: 93.9%
residual activity [36, 45]: 69.3%
residual activity [37, 45]: 83.3%
inhibition [38]: 16.4%
residual activity [39, 45]: 81.8%
residual activity [40, 45]: 91.6%
EC50 [41]: 1.5 nM (active)
IC50 [41]: 0.9 nM (active)
residual activity [42, 45]: 96.4%
residual activity [43, 45]: 100%
residual activity [44, 45]: 67%

Cc1cc(NC(=O)c2cccc(S(F)(F)(F)(F)F)c2)cc(-n2ccn3nc(-c4cccnc4)cc23)c1 [BAY-309]
inhibition [1]: 60.4%
residual activity [2, 46]: 100%
residual activity [3, 46]: 60.8%
residual activity [4, 46]: 66.1%
residual activity [5, 46]: 100%
residual activity [6, 46]: 100%
residual activity [7, 46]: 100%
residual activity [8, 46]: 88.9%
residual activity [9, 46]: 100%
residual activity [10, 46]: 91.8%
residual activity [11, 46]: 100%
residual activity [12, 46]: 86.9%
residual activity [13, 46]: 98.1%
residual activity [14, 46]: 100%
residual activity [15, 46]: 100%
residual activity [16, 46]: 100%
residual activity [17, 46]: 100%
inhibition [18]: 68.7%
inhibition [19]: -4.71%
residual activity [20, 46]: 100%
residual activity [21, 46]: 40.2%
residual activity [22, 46]: 61.2%
residual activity [23, 46]: 95.1%
residual activity [24, 46]: 100%
residual activity [25, 46]: 100%
residual activity [26, 46]: 82.8%
residual activity [27, 46]: 99.9%
residual activity [28, 46]: 100%
residual activity [29, 46]: 70.3%
residual activity [30, 46]: 92.9%
residual activity [31, 46]: 100%
residual activity [32, 46]: 100%
residual activity [33, 46]: 92.8%
residual activity [34, 46]: 100%
residual activity [35, 46]: 97%
residual activity [36, 46]: 100%
residual activity [37, 46]: 100%
inhibition [38]: 12.4%
residual activity [39, 46]: 73.1%
residual activity [40, 46]: 94.2%
EC50 [41]: 200 nM (not active)
IC50 [41]: 340 nM (not active)
residual activity [42, 46]: 72.7%
residual activity [43, 46]: 95.5%
residual activity [44, 46]: 50.7%
